Experimental data: US10358446B2, “Bruton's tyrosine kinase inhibitors” (Zibo Biopolar Changsheng Pharmaceutical Co. Ltd., priority 2015, dated 2019)

target: BTK (Homo sapiens (Human), UniProt Q06187); assay: Btk kinase assay (HTRF); type: biochemical; settings: [ATP]=80 μM, BTK=3.4 nM; read-out: BTK Inhibition
Outline: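 HTRF kinase read-out (665/615 nm ratio, excitation 330 nm) after EDTA quench and 1 h detection incubation. Reaction: 3.4 nM BTK, ATP 80 μM, peptide substrate 1 μM, compound, HEPES pH 7.0 buffer, 1 h; IC50 derived using uninhibited and enzyme-free controls.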

Chain of BTK (Q06187 whole entry, species assumed): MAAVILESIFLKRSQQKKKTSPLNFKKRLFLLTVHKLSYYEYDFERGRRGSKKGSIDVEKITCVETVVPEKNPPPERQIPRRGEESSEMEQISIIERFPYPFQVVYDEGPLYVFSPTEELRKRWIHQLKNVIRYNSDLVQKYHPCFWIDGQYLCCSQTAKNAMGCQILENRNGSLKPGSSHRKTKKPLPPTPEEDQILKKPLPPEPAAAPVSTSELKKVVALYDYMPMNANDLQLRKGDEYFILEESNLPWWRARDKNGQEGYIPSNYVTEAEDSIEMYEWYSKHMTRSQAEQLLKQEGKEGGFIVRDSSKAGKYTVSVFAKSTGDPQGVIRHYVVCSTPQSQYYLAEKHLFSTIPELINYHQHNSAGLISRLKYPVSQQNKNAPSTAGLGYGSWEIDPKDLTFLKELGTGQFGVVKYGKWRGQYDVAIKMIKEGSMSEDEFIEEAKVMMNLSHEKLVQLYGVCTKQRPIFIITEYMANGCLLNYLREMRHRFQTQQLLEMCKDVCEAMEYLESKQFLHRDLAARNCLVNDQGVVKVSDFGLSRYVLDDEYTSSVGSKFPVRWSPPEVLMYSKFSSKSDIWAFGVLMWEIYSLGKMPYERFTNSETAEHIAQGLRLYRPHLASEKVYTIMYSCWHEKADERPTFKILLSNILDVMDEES

| SMILES | IC50 |
| --- | --- |
| C=CC(=O)N1CC[C@@H](n2c(=O)n(-c3ccc(OCc4ccccc4C(F)(F)F)c(Cl)c3)c3cnccc32)C1 [Example 203, (R)-1-(1-acryloylpyrrolidin-3-yl)-3-(3-chloro-4-((2-(trifluoromethyl)benzyl)oxy)phenyl)-1H-imidazo[4,5-c]pyridin-2(3H)-one] | 100 to 1000 nM |
| C=CC(=O)N1CC[C@@H](n2c(=O)n(-c3ccc(OCc4ccccn4)cc3)c3cnccc32)C1 [Example 213, (R)-1-(1-acryloylpyrrolidin-3-yl)-3-(4-(pyridin-2-ylmethoxy)phenyl)-1H-imidazo[4,5-c]pyridin-2(3H)-one] | 1000 to 10000 nM |
| C=CC(=O)Nc1cccc(-n2c(=O)n(-c3ccc(NC(=O)c4cccc(OC)c4)cc3)c3cnccc32)c1 [Example 266, N-(4-(1-(3-acrylamidophenyl)-2-oxo-1H-imidazo[4,5-c]pyridin-3(2H)-yl)phenyl)-3-methoxybenzamide] | 100 to 1000 nM |
| C=C(C)C(=O)Nc1cccc(-n2c(=O)n(-c3ccc(Oc4ccccc4)cc3)c3cnccc32)c1 [Example 110, N-(3-(2-oxo-3-(4-phenoxyphenyl)-2,3-dihydro-1H-imidazo[4,5-c]pyridin-1-yl)phenyl)methacrylamide] | 100 to 1000 nM |
| C=CC(=O)Nc1cccc(-n2c(=O)n(-c3ccc(OCc4ccc(C(F)(F)F)cc4)c(Cl)c3)c3cnccc32)c1 [Example 223, N-(3-(3-(3-chloro-4-((4-(trifluoromethyl)benzyl)oxy)phenyl)-2-oxo-2,3-dihydro-1H-imidazo[4,5-c]pyridin-1-yl)phenyl)acrylamide] | 100 to 1000 nM |
| C=CC(=O)Nc1cccc(-n2c(=O)n(-c3ccc(Oc4ccccc4)cc3)c3cccnc32)c1 [Example 116, N-(3-(2-oxo-1-(4-phenoxyphenyl)-1H-imidazo[4,5-b]pyridin-3(2H)-yl)phenyl)acrylamide] | 100 to 1000 nM |
| C=CC(=O)Nc1cccc(-n2c(=O)n(-c3ccc(Oc4cccc(Cl)c4)c(C)c3)c3cnccc32)c1 [Example 154, N-(3-(3-(4-(3-chlorophenoxy)-3-methylphenyl)-2-oxo-2,3-dihydro-1H-imidazo[4,5-c]pyridin-1-yl)phenyl)acrylamide] | 1000 to 10000 nM |
| C=CC(=O)N1CC[C@@H](n2c(=O)n(-c3ccc(Oc4ccccc4)cc3)c3cccnc32)C1 [Example 120, (R)-3-(1-acryloylpyrrolidin-3-yl)-1-(4-phenoxyphenyl)-1H-imidazo[4,5-b]pyridin-2(3H)-one] | 1000 to 10000 nM |
| C=CC(=O)Nc1cccc(-n2c(=O)n(-c3ccc(OCc4ccc(F)c(F)c4)cc3)c3cnccc32)c1 [Example 241, N-(3-(3-(4-((3,4-difluorobenzyl)oxy)phenyl)-2-oxo-2,3-dihydro-1H-imidazo[4,5-c]pyridin-1-yl)phenyl)acrylamide] | 100 to 1000 nM |
| C=CC(=O)Nc1cccc(-n2c(=O)n(-c3ccc(Oc4ccnc(C(=O)NC)c4)cc3)c3cnccc32)c1 [Example 115, 4-(4-(1-(3-acrylamidophenyl)-2-oxo-1H-imidazo[4,5-c]pyridin-3(2H)-yl)phenoxy)-N-methylpicolinamide] | 100 to 1000 nM |
| C=CC(=O)N1CCC[C@@H]1Cn1c(=O)n(-c2ccc(Oc3cccc(OC)c3F)cc2)c2cncc(C)c21 [Example 170, (R)-1-((1-acryloylpyrrolidin-2-yl)methyl)-3-(4-(2-fluoro-3-methoxyphenoxy)phenyl)-7-methyl-1H-imidazo[4,5-c]pyridin-2(3H)-one] | 100 to 1000 nM |
| C=CC(=O)Nc1cccc(-n2c(=O)n(-c3ccc(OCc4ccccc4)c(F)c3)c3cnccc32)c1 [Example 234, N-(3-(3-(4-(benzyloxy)-3-fluorophenyl)-2-oxo-2,3-dihydro-1H-imidazo[4,5-c]pyridin-1-yl)phenyl)acrylamide] | 100 to 1000 nM |
| C=CC(=O)Nc1cccc(-n2c(=O)n(-c3ccc(OCc4cccc(C(F)(F)F)c4)c(Cl)c3)c3cnccc32)c1 [Example 243, N-(3-(3-(3-chloro-4-((3-(trifluoromethyl)benzyl)oxy)phenyl)-2-oxo-2,3-dihydro-1H-imidazo[4,5-c]pyridin-1-yl)phenyl)acrylamide] | 100 to 1000 nM |
| O=C(/C=C/c1ccccc1)N1CC[C@@H](n2c(=O)n(-c3ccc(Oc4ccccc4)cc3)c3cnccc32)C1 [Example 29, (R,E)-1-(1-cinnamoylpyrrolidin-3-yl)-3-(4-phenoxyphenyl)-1H-imidazo[4,5-c]pyridin-2(3H)-one] | ≥ 10000 nM |
| O=C(/C=C/N1CCOCC1)N1CC[C@@H](n2c(=O)n(-c3ccc(Oc4ccccc4)c(Cl)c3)c3cnccc32)C1 [Example 18, (R,E)-3-(3-chloro-4-phenoxyphenyl)-1-(1-(3-morpholinoacryloyl)pyrolidin-3-yl)-1H-imidazo[4,5-c]-pyridin-2(3H)-one] | 100 to 1000 nM |
| C=CC(=O)Nc1cccc(-n2c(=O)n(-c3ccc(Oc4cccc(OC)c4)c(C)c3)c3cnccc32)c1 [Example 62, N-(3-(3-(4-(3-methoxyphenoxy)-3-methylphenyl)-2-oxo-2,3-dihydro-1H-imidazo[4,5-c]pyridin-1-yl)phenyl)acrylamide] | 10 to 100 nM |
| C=CC(=O)Nc1cccc(-n2c(=O)n(-c3ccc(Oc4cccc(Cl)c4F)cc3)c3cnccc32)c1 [Example 54, N-(3-(3-(4-(3-chloro-2-fluorophenoxy)phenyl)-2-oxo-2,3-dihydro-1H-imidazo[4,5-c]pyridin-1-yl)phenyl)acrylamide] | 10 to 100 nM |
| C=CC(=O)N1CC[C@@H](n2c(=O)n(-c3ccc(Oc4cccc(OCC)c4)cc3)c3cnccc32)C1 [Example 24, (R)-1-(1-acryloylpyrrolidin-3-yl)-3-(4-(3-ethoxyphenoxy)phenyl)-1H-imidazo[4,5-c]pyridin-2(3H)-one] | 10 to 100 nM |

The remaining lines, values ahead:

| IC50 | SMILES |
| --- | --- |
| 10 to 100 nM | C=CC(=O)Nc1cccc(-n2c(=O)n(-c3ccc(Oc4cccc(C(C)C)c4)cc3)c3cnccc32)c1 [Example 114, N-(3-(3-(4-(3-isopropylphenoxy)phenyl)-2-oxo-2,3-dihydro-1H-imidazo[4,5-c]pyridin-1-yl)phenyl)acrylamide] |
| 10 to 100 nM | C=CC(=O)N1CC[C@@H](n2c(=O)n(-c3ccc(Oc4cccc(F)c4)c(F)c3)c3cnccc32)C1 [Example 77, (R)-1-(1-acryloylpyrrolidin-3-yl)-3-(3-fluoro-4-(3-fluorophenoxy)phenyl)-1H-imidazo[4,5-c]pyridin-2(3H)-one] |
| 10 to 100 nM | C=CC(=O)Nc1cccc(-n2c(=O)n(-c3cccc(Oc4cccc(OC)c4)c3)c3cnccc32)c1 [Example 87, N-(3-(3-(3-(3-methoxyphenoxy)phenyl)-2-oxo-2,3-dihydro-1H-imidazo[4,5-c]pyridin-1-yl)phenyl)acrylamide] |
| 10 to 100 nM | C=CC(=O)Nc1cccc(-n2c(=O)n(-c3cccc(Oc4ccccc4C)c3)c3cnccc32)c1 [Example 88, N-(3-(2-oxo-3-(3-(o-tolyloxy)phenyl)-2,3-dihydro-1H-imidazo[4,5-c]pyridin-1-yl)phenyl)acrylamide] |
| 10 to 100 nM | C=CC(=O)N1CCC[C@@H](n2c(=O)n(-c3ccc(Oc4cccc(C)c4)c(F)c3)c3cnccc32)C1 [Example 105, (R)-1-(1-acryloylpiperidin-3-yl)-3-(3-fluoro-4-(m-tolyloxy)phenyl)-1H-imidazo[4,5-c]pyridin-2(3H)-one] |
| 10 to 100 nM | C=CC(=O)Nc1cccc(-n2c(=O)n(-c3ccc(Oc4cccc(F)c4F)cc3)c3cnccc32)c1 [Example 125, N-(3-(3-(4-(2,3-difluorophenoxy)phenyl)-2-oxo-2,3-dihydro-1H-imidazo[4,5-c]pyridin-1-yl)phenyl)acrylamide] |
| 10 to 100 nM | C=CC(=O)N1CC[C@@H](n2c(=O)n(-c3ccc(Oc4cccc(OC)c4)c(Cl)c3)c3cnccc32)C1 [Example 45, (R)-1-(1-acryloylpyrrolidin-3-yl)-3-(3-chloro-4-(3-methoxyphenoxy)phenyl)-1H-imidazo[4,5-c]pyridin-2(3H)-one] |
| 10 to 100 nM | C=CC(=O)N1CCC(n2c(=O)n(-c3ccc(Oc4cccc(C(F)(F)F)c4)c(Cl)c3)c3cnccc32)C1 (centres unmarked) [Example 6, 1-(1-acryloylpyrrolidin-3-yl)-3-(3-chloro-4-(3-(trifluoromethyl)phenoxy)phenyl)-1H-imidazo[4,5-c]pyridin-2(3H)-one] |
| 10 to 100 nM | C=CC(=O)Nc1cccc(-n2c(=O)n(-c3ccc(Oc4cccc(C)c4C)cc3)c3cnccc32)c1 [Example 147, N-(3-(3-(4-(2,3-dimethylphenoxy)phenyl)-2-oxo-2,3-dihydro-1H-imidazo[4,5-c]pyridin-1-yl)phenyl)acrylamide] |
| 10 to 100 nM | C=CC(=O)N1CC[C@@H](n2c(=O)n(-c3ccc(Oc4cccc(C)c4)c(Cl)c3)c3cnccc32)C1 [Example 19, (R)-1-(1-acryloylpyrrolidin-3-yl)-3-(3-chloro-4-(m-tolyloxy)phenyl)-1H-imidazo[4,5-c]pyridin-2(3H)-one] |
| ≤ 10 nM | C=CC(=O)Nc1cccc(-n2c(=O)n(-c3ccc(Oc4ccccc4)c(F)c3)c3cnccc32)c1 [Example 93, N-(3-(3-(3-fluoro-4-phenoxyphenyl)-2-oxo-2,3-dihydro-1H-imidazo[4,5-c]pyridin-1-yl)phenyl)acrylamide] |
| 10 to 100 nM | C=CC(=O)Nc1cccc(-n2c(=O)n(-c3cccc(Oc4ccc(C)cc4)c3)c3cnccc32)c1 [Example 76, N-(3-(2-oxo-3-(3-(p-tolyloxy)phenyl)-2,3-dihydro-1H-imidazo[4,5-c]pyridin-1-yl)phenyl)acrylamide] |
| 10 to 100 nM | C=CC(=O)N1CCC[C@@H](n2c(=O)n(-c3ccc(Oc4cccc(Cl)c4C)cc3)c3cnccc32)C1 [Example 134, (R)-1-(1-acryloylpiperidin-3-yl)-3-(4-(3-chloro-2-methylphenoxy)phenyl)-1H-imidazo[4,5-c]pyridin-2(3H)-one] |
| 10 to 100 nM | C=CC(=O)Nc1cccc(-n2c(=O)n(-c3ccc(Oc4cccc(OCC)c4)cc3)c3cnccc32)c1 [Example 113, N-(3-(3-(4-(3-ethoxyphenoxy)phenyl)-2-oxo-2,3-dihydro-1H-imidazo[4,5-c]pyridin-1-yl)phenyl)acrylamide] |
